Patent US9302999B2, “Substituted triazoles as herbicides” (E. I. DU PONT DE NEMOURS AND COMPANY, priority 2012, dated 2016)

Columns and labels:
Assay type in all cases: in vivo
[1] = tested on: ducksalad (Heteranthera limosa); experiment: Test C flooded paddy test: ducksalad; conditions: scale 0 to 100 (0 no effect, 100 complete control)
How it was run: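 Rating: visual, 0–100 (100 = complete control), versus untreated controls after 13 to 15 greenhouse days. Treatment went into paddy water held at 3 cm over the soil, on plants grown to two leaves.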

[2] = tested on: field violet (Viola arvensis); experiment: Test D pre-/postemergence: field violet
Text: (§1) Seeds of plant species selected from bluegrass (annual bluegrass, Poa annua), blackgrass (Alopecurus myosuroides), canarygrass (Phalaris minor), chickweed (common chickweed, Stellaria media), galium (catchweed bedstraw, Galium aparine), bromegrass, downy (downy bromegrass, Bromus tectorum), field poppy (Papaver rhoeas), field violet (Viola arvensis), foxtail, green (green foxtail, Setaria viridis), deadnettle (henbit deadnettle, Lamium amplexicaule), ryegrass, Italian (Italian ryegrass, Lolium multiflorum), kochia (Kochia scoparia), lambsquarters (Chenopodium album), oilseed rape (Brassica napus), pigweed (Amaranthus retroflexus), Russian thistle (Salsola iberica), chamomile (scentless chamomile, Matricaria inodora), speedwell (bird's-eye speedwell, Veronica persica), barley, spring (spring barley, Hordeum vulgare), wheat, spring (spring wheat, Triticum aestivum), buckwheat, wild (wild buckwheat, Polygonum convolvulus), mustard, wild (wild mustard, Sinapis arvensis), oat, wild (wild oat, Avena fatua), radish, wild (wild radish, Raphanus raphanistrum), windgrass (Apera spica-venti), barley, winter (winter barley, Hordeum vulgare), and wheat, winter (winter wheat, Triticum aestivum) were planted into a silt loam soil and treated preemergence with test chemicals formulated in a non-phytotoxic solvent mixture which included a surfactant. At the same time, these same crop and weed species were planted in pots containing the planting medium comprising spaghnum peat moss, vermiculite, wetting agent and starter nutrients and treated with postemergence applications of the test chemicals formulated in the same manner. Plants ranged in height from 2 to 18 cm (1- to 4-leaf stage).
(§2) Treated plants and controls were maintained in a controlled growth environment for 14 to 21 days after which time all species were compared to controls and visually evaluated. Plant response ratings, summarized in Table D, are based on a scale of 0 to 100 where 0 is no effect and 100 is complete control. A dash (-) response means no test result.

[3] = tested on: bromegrass, downy (downy bromegrass, Bromus tectorum); experiment: Test D pre-/postemergence: bromegrass, downy
Text: as §1, §2

[4] = tested on: radish, wild (wild radish, Raphanus raphanistrum); experiment: Test D pre-/postemergence: radish, wild
Text: as §1, §2

[5] = tested on: barley, spring (spring barley, Hordeum vulgare); experiment: Test D pre-/postemergence: barley, spring
Text: as §1, §2

[6] = Flood (flooded paddy test), 125 g ai/ha, visual rating after 13 to 15 days
[7] = Flood (flooded paddy test), 250 g ai/ha, visual rating after 13 to 15 days
[8] = Postemergence, 31 g ai/ha, scale 0 to 100 (0 no effect, 100 complete control)
[9] = Postemergence, 62 g ai/ha, scale 0 to 100 (0 no effect, 100 complete control)
[10] = Postemergence, 125 g ai/ha, scale 0 to 100, 0 no effect, 100 complete control
[11] = Postemergence, 250 g ai/ha, scale 0 to 100 (0 no effect, 100 complete control)
[12] = Postemergence, 16 g ai/ha, scale 0 to 100
[13] = Preemergence, 31 g ai/ha, scale 0 to 100, 0 no effect, 100 complete control
[14] = Preemergence, 62 g ai/ha, scale 0 to 100
[15] = Preemergence, 125 g ai/ha, scale 0 to 100
[16] = Preemergence, 250 g ai/ha, scale 0 to 100
[17] = Preemergence, 16 g ai/ha, scale 0 to 100, 0 no effect, 100 complete control

SMILES: Cc1nn(-c2ccc(C(F)(F)F)cn2)nc1Oc1ccnc(C(F)(F)F)c1 [Compound 23]
- Plant response rating, Ducksalad ([1]; Flood (flooded paddy test), 62 g ai/ha, visual rating after 13 to 15 days): 60
- Plant response rating, Ducksalad [1, 6]: 60
- Plant response rating, Ducksalad [1, 7]: 85
- Plant response rating, Ducksalad ([1]; Flood, 31 g ai/ha): 50
- Plant response rating: Field Violet [2, 8]: 40
- Plant response rating: Field Violet [2, 9]: 50
- Plant response rating: Field Violet [2, 10]: 70
- Plant response rating: Field Violet [2, 11]: 80
- Plant response rating, Field Violet [2, 12]: 20
- Plant response rating: Bromegrass, Downy [3, 8]: 10
- Plant response rating: Bromegrass, Downy [3, 9]: 15
- Plant response rating: Bromegrass, Downy [3, 10]: 20
- Plant response rating: Bromegrass, Downy [3, 11]: 25
- Plant response rating, Bromegrass, Downy [3, 12]: 0
- Plant response rating: Radish, Wild [4, 8]: 20
- Plant response rating: Radish, Wild [4, 9]: 40
- Plant response rating: Radish, Wild [4, 10]: 75
- Plant response rating: Radish, Wild [4, 11]: 100
- Plant response rating, Radish, Wild [4, 12]: 20
- Plant response rating: Barley, Spring [5, 8]: 0
- Plant response rating: Barley, Spring [5, 9]: 10
- Plant response rating: Barley, Spring [5, 10]: 10
- Plant response rating: Barley, Spring [5, 11]: 15
- Plant response rating, Barley, Spring [5, 12]: 0

SMILES: Cc1nn(-c2ccc(C(F)(F)F)cn2)nc1Cc1cccc(C(F)(F)F)c1 [Compound 106]
- Plant response rating, Ducksalad [1, 6]: 70
- Plant response rating, Ducksalad [1, 7]: 70
- Plant response rating, Ducksalad ([1]; Flood, 31 g ai/ha): 0
- Plant response rating, Ducksalad ([1]; Flood, 62 g ai/ha): 60
- Plant response rating: Field Violet [2, 8]: 70
- Plant response rating: Field Violet [2, 9]: 70
- Plant response rating: Field Violet [2, 10]: 85
- Plant response rating: Field Violet [2, 11]: 100
- Plant response rating, Field Violet [2, 12]: 70
- Plant response rating: Bromegrass, Downy [3, 8]: 0
- Plant response rating: Bromegrass, Downy [3, 9]: 10
- Plant response rating: Bromegrass, Downy [3, 10]: 15
- Plant response rating: Bromegrass, Downy [3, 11]: 15
- Plant response rating, Bromegrass, Downy [3, 12]: 0
- Plant response rating, Bromegrass, Downy [3, 13]: 0
- Plant response rating, Bromegrass, Downy [3, 14]: 0
- Plant response rating, Bromegrass, Downy [3, 15]: 0
- Plant response rating, Bromegrass, Downy [3, 16]: 0
- Plant response rating: Radish, Wild [4, 8]: 100
- Plant response rating: Radish, Wild [4, 9]: 100
- Plant response rating: Radish, Wild [4, 10]: 100
- Plant response rating: Radish, Wild [4, 11]: 100
- Plant response rating, Radish, Wild [4, 12]: 100
- Plant response rating, Radish, Wild [4, 13]: 0
- Plant response rating, Radish, Wild [4, 14]: 30
- Plant response rating, Radish, Wild [4, 15]: 30
- Plant response rating, Radish, Wild [4, 16]: 30
- Plant response rating: Barley, Spring [5, 8]: 10
- Plant response rating: Barley, Spring [5, 9]: 15
- Plant response rating: Barley, Spring [5, 10]: 20
- Plant response rating: Barley, Spring [5, 11]: 30
- Plant response rating, Barley, Spring [5, 12]: 5
- Plant response rating, Barley, Spring [5, 13]: 0
- Plant response rating, Barley, Spring [5, 14]: 0
- Plant response rating, Barley, Spring [5, 15]: 0
- Plant response rating, Barley, Spring [5, 16]: 0

SMILES: Cc1nn(-c2ccc(C(F)(F)F)cc2)nc1Oc1ccnc(C(F)(F)F)c1 [Compound 120]
- Plant response rating, Ducksalad [1, 6]: 80
- Plant response rating, Ducksalad [1, 7]: 85
- Plant response rating, Ducksalad ([1]; Flood, 62 g ai/ha): 70
- Plant response rating: Field Violet [2, 8]: 70
- Plant response rating: Field Violet [2, 9]: 100
- Plant response rating: Field Violet [2, 10]: 100
- Plant response rating: Field Violet [2, 11]: 100
- Plant response rating, Field Violet [2, 12]: 70
- Plant response rating, Field Violet [2, 17]: 75
- Plant response rating, Field Violet [2, 13]: 90
- Plant response rating, Field Violet [2, 14]: 95
- Plant response rating, Field Violet [2, 15]: 100
- Plant response rating, Field Violet [2, 16]: 100
- Plant response rating: Bromegrass, Downy [3, 8]: 10
- Plant response rating: Bromegrass, Downy [3, 9]: 10
- Plant response rating: Bromegrass, Downy [3, 10]: 20
- Plant response rating: Bromegrass, Downy [3, 11]: 25
- Plant response rating, Bromegrass, Downy [3, 12]: 5
- Plant response rating, Bromegrass, Downy [3, 17]: 0
- Plant response rating, Bromegrass, Downy [3, 13]: 0
- Plant response rating, Bromegrass, Downy [3, 14]: 5
- Plant response rating, Bromegrass, Downy [3, 15]: 25
- Plant response rating, Bromegrass, Downy [3, 16]: 60
- Plant response rating: Radish, Wild [4, 8]: 100
- Plant response rating: Radish, Wild [4, 9]: 90
- Plant response rating: Radish, Wild [4, 10]: 100
- Plant response rating: Radish, Wild [4, 11]: 100
- Plant response rating, Radish, Wild [4, 12]: 100
- Plant response rating, Radish, Wild [4, 17]: 0
- Plant response rating, Radish, Wild [4, 14]: 20
- Plant response rating, Radish, Wild [4, 15]: 90
- Plant response rating, Radish, Wild [4, 16]: 100
- Plant response rating: Barley, Spring [5, 8]: 10
- Plant response rating: Barley, Spring [5, 9]: 15
- Plant response rating: Barley, Spring [5, 10]: 15
- Plant response rating: Barley, Spring [5, 11]: 30
- Plant response rating, Barley, Spring [5, 12]: 5
- Plant response rating, Barley, Spring [5, 17]: 0
- Plant response rating, Barley, Spring [5, 13]: 0
- Plant response rating, Barley, Spring [5, 14]: 5
- Plant response rating, Barley, Spring [5, 15]: 10
- Plant response rating, Barley, Spring [5, 16]: 20
